Results: publication PMC6324813, “Biological evaluation of isoflavonoids from Genista halacsyi using estrogen-target cells: Activities of glucosides compared to aglycones” (PLoS ONE, 2019)

Assays:
Ishikawa cells = experiment: Induction of AlkP expression in Ishikawa cells; format: cell-based, human; conditions: for Induction of Alkaline Phosphatase Expression (Ishikawa cells) AUC (%): % of AUC of luciferase response of archetypal 3, 4, 5 or 8 up to 0.3, 10, 1.0 and 3.0 μM; for EC (25% of 0.1 nM E2 effect) / activation at 1 µM / EC50: Homo sapiens, Ishikawa; for EC (25% of 0.1 nM E2 effect) / activation at 1 µM: 72 h; for EC (25% of 0.1 nM E2 effect): concentration required to achieve 25% of the effect of 0.1 nM E2, read-out: Induction of Alkaline Phosphatase Expression (Ishikawa cells) EC25E2; for activation at 1 µM: read-out: Induction of AlkP expression (Ishikawa cells) Agonism at 1μΜ (% of 0.1nM E2); for EC50: concentration required to achieve 50% of the effect of 0.1 nM E2, read-out: Induction of Alkaline Phosphatase Expression (Ishikawa cells) EC50E2; for AlkP-inducing agonist effect compared to the effect of 0.1 nM estradiol: isoflavonoids 1 μM, statistically significant effects
How it was run: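 Ishikawa cells at 12,000 per well were grown in phenol-red-free MEM with 1 μg/mL insulin and 5% DCC-FBS, as an estrogenic read-out. AlkP activity versus isoflavonoid concentration was curve-fitted and AUC derived. AUC was expressed as % of the luciferase-response AUC of the matching archetypal isoflavone.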

MCF-7 cells = experiment: MCF-7 cell proliferation (MTT); format: cell-based, human; conditions: Homo sapiens, MCF7, 72 h; read-out: Induction of cell proliferation (MCF-7 cells) Agonism at 1μΜ (% of 0.1nM E2)
Method: Test compound effects on the proliferation of MCF-7 and MDA-MB-231 cells were assessed as previously described.

MC3T3-E1 cells = experiment: Differentiation of MC3T3-E1 cells to osteoblasts, AlkP activity; format: cell-based, mouse; conditions: DF + E2 1 nM or compound 1 μM; 6 days; DF plus vehicle = 100
Method: Differentiation of MC3T3-E1 cells was carried out in 96-well plates using 3,300 cells per well and was assessed via induction of, i) Alkaline Phosphatase (AlkP) activity after 6 days of treatment and, ii) mineralization of extracellular matrix after 21 days of treatment. Briefly, 24 h after plating, the cells were incubated with test compounds or vehicle i.e. the compound diluent (0.1% DMSO) and then exposed for 6 days to differentiation medium in presence or absence of differentiation factors (cf. Cell culture) with a change to fresh compounds and medium in 3 days. AlkP activity was assessed at 405 nm in a Safire II microplate reader using as substrate p-nitrophenyl-phosphate (pNPP, Sigma-Aldrich) as already described. Mineralization of MC3T3 cells was assessed by staining with Alizarin red (Fluka). Cells were cultured and treated as described above for 21 days, with media and test compounds changed every 3 days, and calcium phosphate deposition was assayed as described by Gregory et al.. Briefly, the cells were washed twice with PBS and fixed with 70% ethanol for 15 min on ice. The cells were stained with Alizarin red solution (40 mM, pH 4.2) for 30 min at room temperature, washed twice with distilled water and once with PBS. The dye from the stained mineral deposits was extracted with 33% acetic acid and the absorbance was measured at 405 nm using a Safire II microplate reader (Tecan).

RAW 264.7 cells = experiment: Differentiation of RAW 264.7 cells to osteoclasts, TRAP activity; format: cell-based, mouse; conditions: RANKL 50 ng/ml + E2 1 nM or compound 1 μM; 3 days; DF plus vehicle = 100
Method: Clones of RAW 264.7 cells competent to differentiate to multinuclear osteoclasts upon activation with RANKL provide valuable information on the regulation of osteoclast differentiation. Differentiation-competent RAW cells (ATCC TIB-71) were seeded in 96-well plates at a density of 9,600 cells per well. The cells were plated in the presence of test compounds or compound diluent (0.1% DMSO) and, 4 h after plating, were exposed for 3 days to 50 ng/ml RANKL or to plain medium. Osteoclastic differentiation was assessed via induction of Tartrate-Resistant Acid Phosphatase (TRAP) activity. The cells were washed with PBS and incubated with 25μl lysis buffer (0.4 M NaCl, 25 mM Hepes pH 7.7, 1.5 mM MgCl2, 0.2 mM EDTA, 1% NP40) for 5 min on ice.

TNFα mRNA = experiment: LPS-induced TNFα mRNA expression in RAW 264.7 cells (RT-qPCR); format: cell-based, mouse; conditions: for reduction of LPS induction of TNFα mRNA expression: 3 μM, LPS 100 ng/ml 1 h; for suppression of LPS-stimulated TNFα mRNA expression: pre-incubated with 3 μM isoflavonoid prior to the stimulation
Method: To assess TNFα mRNA expression, RAW 264.7 cells were plated in 6-well plates in alpha-MEM medium supplemented with 10% DCC-FBS, at a density of 300,000 cells per well, maintained in culture for 72 h and then exposed to vehicle (0.3% DMSO) or 3 μΜ test compound for 20 min or 24 h prior to stimulation with 100 ng/ml lipopolysaccharide (Sigma L4391) for 1 h. Extraction of total RNA, reverse transcription (RT) and quantitative PCR (qPCR) analysis of mRNA expression levels were performed as previously described. Relative gene expression levels were calculated by the comparative Ct method using the formula 2^(-ΔCt). Tumor necrosis factor alpha (TNFα) mRNA levels were normalized to the respective levels of […] (GAPDH). Test compound effects on the relative number of viable cells were assessed using crystal violet and a Safire II microplate reader (Tecan) as previously described. […] The following primers were used: […]

ERβ = ERβ (Homo sapiens, UniProt Q92731); experiment: ERE-dependent luciferase gene transcription in HEK:ERβ cells; format: cell-based; set-up: expressed in transfected cells; host or cells: HEK-293 (HEK:ERβ clone, with pERE-tk-Luciferase); conditions: 18 h
Chain of ERβ (Q92731 whole entry): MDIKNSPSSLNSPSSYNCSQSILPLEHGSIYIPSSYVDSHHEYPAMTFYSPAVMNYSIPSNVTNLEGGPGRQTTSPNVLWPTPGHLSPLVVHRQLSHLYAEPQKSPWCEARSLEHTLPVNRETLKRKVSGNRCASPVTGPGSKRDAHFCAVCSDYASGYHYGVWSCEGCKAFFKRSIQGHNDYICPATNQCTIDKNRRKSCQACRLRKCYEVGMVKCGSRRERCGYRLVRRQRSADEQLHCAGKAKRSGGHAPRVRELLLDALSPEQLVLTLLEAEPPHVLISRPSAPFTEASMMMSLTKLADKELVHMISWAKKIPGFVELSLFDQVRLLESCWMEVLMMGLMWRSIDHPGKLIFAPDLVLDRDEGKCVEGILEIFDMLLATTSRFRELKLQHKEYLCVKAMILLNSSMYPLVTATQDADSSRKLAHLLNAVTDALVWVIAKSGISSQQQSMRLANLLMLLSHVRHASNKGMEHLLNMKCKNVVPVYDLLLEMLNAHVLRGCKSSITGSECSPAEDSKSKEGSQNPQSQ

## O=c1c(-c2ccc(O)cc2)coc2cc(O[C@@H]3O[C@H](CO)[C@@H](O)[C@H](O)[C@H]3O)cc(O)c12 [Compound 12, 7-O-β-D-glucopyranosyl-genistein]
Ishikawa cells
  Induction of Alkaline Phosphatase Expression (Ishikawa cells) AUC (%): 110±10%
  EC (25% of 0.1 nM E2 effect): 0.05 ± 0.01 µM
  activation at 1 µM: 101 ± 5%
  EC50: 70 ± 10 nM
  AlkP-inducing agonist effect compared to the effect of 0.1 nM estradiol: very similar to estradiol
MCF-7 cells
  activation at 1 µM: 79 ± 9%
MC3T3-E1 cells
  Differentiation of MC3T3-E1 cells, AlkP expression (%): 125±8 %
RAW 264.7 cells
  Differentiation of RAW 267.4 cells, TRAP expression (%): 110±5%
TNFα mRNA; pre-treatment 24 h
  reduction of LPS induction of TNFα mRNA expression: 20%
TNFα mRNA
  suppression of LPS-stimulated TNFα mRNA expression: marginally effective
ERβ; compounds 1 μM, estradiol 0.1 nM
  Induction of luciferase gene transcription through ERβ, HEK:ERβ cells, Agonism at 1μΜ (% of 0.1nM E2): 121 ± 18 (Full) % of 0.1nM E2

## O=c1c(-c2ccc(OC3O[C@H](CO)[C@@H](O)[C@H](O)[C@H]3O)cc2)coc2cc(OC3O[C@H](CO)[C@@H](O)[C@H](O)[C@H]3O)cc(O)c12 (stereo partly drawn) [Compound 11, 7,4΄-di-O-glucopyranosylgenistein]
Ishikawa cells
  Induction of Alkaline Phosphatase Expression (Ishikawa cells) AUC (%): 66±5%
  EC (25% of 0.1 nM E2 effect): 0.09 ± 0.01 µM
  activation at 1 µM: 105 ± 9%
  EC50: 160 ± 20 nM
  AlkP-inducing agonist effect compared to the effect of 0.1 nM estradiol: very similar to estradiol
Ishikawa cells; AUCAlkP / AUCluciferase
  Ratio of AUC (AlkP / Lucif): 0.88±0.06
MCF-7 cells
  activation at 1 µM: 79 ± 5%
MC3T3-E1 cells
  Differentiation of MC3T3-E1 cells, AlkP expression (%): 120±6 %
RAW 264.7 cells
  Differentiation of RAW 267.4 cells, TRAP expression (%): 112±9%
TNFα mRNA; pre-treatment 20 min
  reduction of LPS induction of TNFα mRNA expression: 30%
TNFα mRNA; pre-treatment 24 h
  reduction of LPS induction of TNFα mRNA expression: 29%
TNFα mRNA
  suppression of LPS-stimulated TNFα mRNA expression: ~ 30%
ERβ; read-out: Induction of luciferase gene transcription through ERβ, HEK:ERβ cells, Agonism at 1μΜ (% of 0.1nM E2)
  activation at 1 µM: 80 ± 20%
